Measurements reported in the NIST ThermoML archive (doi:10.1016/j.fluid.2014.07.038).
Numbers after ± are expanded uncertainties.

Conditions: Liquid; pulse heating to limit of superheat

Row | SMILES | Critical pressure [kPa] | Critical temperature [K]
1 | CCCCCCCCCCCCCCCCCC(=O)OC [methyl octadecanoate] | 1080 ± 60 | 785 ± 16
2 | OCCCO [propan-1,3-diol] | 6380 ± 520 | 721 ± 22
3 | CCCCCCCCCCCCCCCC(=O)OC [methyl hexadecanoate] | 1170 ± 80 | 760 ± 16
4 | CC(C)(CO)CO [2,2-dimethyl-1,3-propanediol] | 4200 ± 400 | 687 ± 20
5 | CCCCCCCCCCCCCC(=O)OC [methyl tetradecanoate] | 1320 ± 80 | 730 ± 14
6 | OCc1ccccc1 [benzenemethanol] | 4330 ± 200 | 713 ± 14
7 | O=Cc1ccccc1 [benzaldehyde] | 4410 ± 200 | 692 ± 14
8 | CCCCCCCC/C=C\CCCCCCCC(=O)OC [methyl cis-9-octadecenoate] | 1210 ± 80 | 777 ± 16

Now from value to compound:

Row | Critical pressure [kPa] | Critical temperature [K] | SMILES
9 | 3800 ± 200 | 775 ± 16 | Cc1ccc(C(=O)O)cc1 [4-methylbenzoic acid]
10 | 3800 ± 200 | 712 ± 14 | Cc1ccc(C=O)cc1 [4-methylbenzaldehyde]
11 | 4530 ± 200 | 755 ± 16 | O=C(O)c1ccccc1 [benzoic acid]
12 | 3610 ± 200 | 719 ± 14 | Cc1ccc(CO)cc1 [1-(hydroxymethyl)-4-methylbenzene]
13 | 3920 ± 240 | 763 ± 16 | Cc1ccccc1C(=O)O [2-methylbenzoic acid]
14 | 4800 ± 300 | 864 ± 18 | O=Cc1ccccc1C(=O)O [2-carboxybenzaldehyde]
15 | 3850 ± 240 | 771 ± 16 | Cc1cccc(C(=O)O)c1 [3-methylbenzoic acid]
